From US12600728B2, “Interleukin-17 inhibitors” (priority 2020, dated 2026)
Where two headings read alike, the source gives them in different places.

Legend:
[1] = biological target: biotinylated human IL-17A / AF647-labeled human IL-17RA (Homo sapiens, UniProt Q16552); assay: Human IL-17A×IL-17RA TR-FRET assay; type: binding
Procedure, shortened: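 Compounds tested in duplicate at each concentration; neutral controls contain all components with DMSO in place of compound.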

[2] = biological target: recombinant human IL-17AA (Homo sapiens, UniProt Q16552); assay: IL-6 release from NHDF cells, IL-17AA plus TNF-α stimulation; type: cell-based; details: 24 hours, IL-6 by ELISA
Procedure: IL-6 Release from NHDF Cells (Normal Human Dermal Fibroblasts)
NHDF cells isolated from normal adult mesoderm, connective tissues were cultured in fibroblast growth medium containing 2% supplement. […] The cells were allowed to adhere overnight before they were incubated with the compound/cytokine cocktail.
Diluted compounds were pre-incubated with recombinant human IL-17AA or IL-17AF plus human TNF-α for 30 minutes at room temperature on a shaker. […] The cells were incubated with the compound/cytokines cocktail for 24 hours at 37° C. (5% CO2). […] The final DMSO or plasma concentrations were 0.1% or 20%, respectively. All compound incubations were done in duplicate. The supernatants were collected to quantify IL-6 by ELISA according to the manufacturers instructions. The optical density was measured at 450 nm by an EnVision Multilabel Plate Reader (Perkin Elmer). The IL-6 levels produced after TNF-α stimulation were subtracted from the IL-6 produced after IL-17/TNF-α co-stimulation. These IL-17-specific IL-6 concentrations were used for […] value calculation.

[3] = TR-FRET, biotinylated human IL-17A 5 nM, AF647-labeled human IL-17RA 30 nM, read-out: IL17AA FRET/ IL17Rawt IC50
[4] = NHDF cells, IL-17AA 30 pM plus TNF-α 6 pM, read-out: IL17AA + TNF IC50 IL-6
[5] = TR-FRET, 5 nM IL-17A, 30 nM IL-17RA, read-out: IL17AA FRET/ IL17Rawt IC50
[6] = NHDF cells, IL-17AA 30 pM + TNF-α 6 pM, read-out: IL17AA + TNF IC50 IL-6
[7] = IL17AA FRET/ IL17Rawt IC50, TR-FRET, biotinylated human IL-17A 5 nM, AF647-labeled human IL-17RA 30 nM
[8] = IL17AA + TNF IC50 IL-6, NHDF cells, IL-17AA 30 pM plus TNF-α 6 pM
[9] = IL17AA FRET/ IL17Rawt IC50, TR-FRET, 5 nM IL-17A, 30 nM IL-17RA

Sequence of recombinant human IL-17AA (Q16552 24-155): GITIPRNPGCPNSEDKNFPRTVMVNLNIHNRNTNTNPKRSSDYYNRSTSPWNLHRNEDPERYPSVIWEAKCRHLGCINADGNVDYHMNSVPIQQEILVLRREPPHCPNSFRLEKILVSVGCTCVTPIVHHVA
Sequence of biotinylated human IL-17A / AF647-labeled human IL-17RA (Q16552 24-155): as above

SMILES	IC50 [1, 3] [nM]	IC50 [2, 4] [nM]	IC50 [1, 5] [nM]	IC50 [2, 6] [nM]	also measured
COCCn1nccc1C(=O)N[C@H](C(=O)Nc1ccc(-c2c(Cl)cc[n+]([O-])c2C)c(F)c1)C1CCCCC1 [Example 15, 4-chloro-3-(4-((S)-2-cyclohexyl-2-(1-(2-methoxyethyl)-1H-pyrazole-5-carboxamido)acetamido)-2-fluorophenyl)-2-methylpyridine 1-oxide]	52	10	–	–	–
CCc1nocc1C(=O)N[C@H](C(=O)Nc1ccc(-c2c(C)cc[n+]([O-])c2C)cc1)C1CCC(F)(F)CC1 [Example 31, (S)-3-(4-(2-(4,4-difluorocyclohexyl)-2-(3-ethylisoxazole-4-carboxamido)acetamido)phenyl)-2,4-dimethylpyridine 1-oxide]	114	15	–	–	–
Cc1c[n+]([O-])cc(C)c1-c1ccc(NC(=O)[C@@H](NC(=O)c2ccnn2C)C2CCCCCC2)cc1 [Example 99, (S)-4-(4-(2-cycloheptyl-2-(1-methyl-1H-pyrazole-5-carboxamido)acetamido)phenyl)-3,5-dimethylpyridine 1-oxide]	208	81	–	–	–
Cc1c(-c2ccc(NC(=O)C(NC(=O)c3ccnn3C)C3CCC(C)CC3)cc2F)c(Cl)cc[n+]1[O-] [Example 56, 4-chloro-3-(2-fluoro-4-((S)-2-(1-methyl-1H-pyrazole-5-carboxamido)-2-((1r,4S)-4-methylcyclohexyl)acetamido)phenyl)-2-methylpyridine 1-oxide]	–	–	–	–	IC50 [1, 7]: 21 nM; IC50 [2, 8]: 4 nM
Cc1c(-c2ccc(NC(=O)C(NC(=O)c3ccnn3C)C3CCC(C)CC3)cc2)c(Cl)cc[n+]1[O-] [Example 46, 4-chloro-2-methyl-3-(4-((S)-2-(1-methyl-1H-pyrazole-5-carboxamido)-2-((1r,4S)-4-methylcyclohexyl)acetamido)phenyl)pyridine 1-oxide]	18	4	–	–	–
Cc1cc[n+]([O-])c(C)c1-c1ccc(NC(=O)[C@@H](NC(=O)c2ccnn2C)[C@H]2CCCc3ccccc32)cc1 [Example 1, 2,4-dimethyl-3-(4-((S)-2-(1-methyl-1H-pyrazole-5-carboxamido)-2-((S)-1,2,3,4-tetrahydronaphthalen-1-yl)acetamido)phenyl)pyridine 1-oxide]	8	4	–	–	–
CCn1nccc1C(=O)N[C@H](C(=O)Nc1ccc(-c2cc(Cl)c[n+]([O-])c2C)cc1)C1CCC(F)(F)CC1 [Example 170, (S)-5-chloro-3-(4-(2-(4,4-difluorocyclohexyl)-2-(1-ethyl-1H-pyrazole-5-carboxamido)acetamido)phenyl)-2-methylpyridine 1-oxide]	–	–	–	–	IC50 [1, 9]: 402 nM; IC50 ([2]; IL17AA + TNF IC50 IL-6, NHDF cells, IL-17AA 30 pM + TNF-α 6 pM): 231 nM
Cc1nocc1C(=O)N[C@H](C(=O)Nc1ccc(-c2c(C(F)(F)F)cc[n+]([O-])c2C)cc1)C1CCCC1 [Example 22, (S)-3-(4-(2-cyclopentyl-2-(3-methylisoxazole-4-carboxamido)acetamido)phenyl)-2-methyl-4-(trifluoromethyl)pyridine 1-oxide]	59	66	–	–	–
CCn1nccc1C(=O)N[C@H](C(=O)Nc1ccc(-c2c(C(F)(F)F)cc[n+]([O-])c2C)cc1)C1CCC(F)(F)CC1 [Example 11, (S)-3-(4-(2-(4,4-difluorocyclohexyl)-2-(1-ethyl-1H-pyrazole-5-carboxamido)acetamido)phenyl)-2-methyl-4-(trifluoromethyl)pyridine 1-oxide]	82	20	–	–	–
Cc1cc[n+]([O-])c(C)c1-c1ccc(NC(=O)[C@@H](NC(=O)c2conc2C)[C@@H]2CC=C(F)CC2)cc1 [Example 29, 3-(4-((S)-2-((S)-4-fluorocyclohex-3-en-1-yl)-2-(3-methylisoxazole-4-carboxamido)acetamido)phenyl)-2,4-dimethylpyridine 1-oxide]	85	47	–	–	–
Cc1cc[n+]([O-])c(C)c1-c1ccc(NC(=O)[C@@H](NC(=O)c2ccnn2C)[C@H]2CC=C(F)CC2)cc1 (single isomer, unassigned) [Example 12b, 3-(4-((S)-2-((R)-4-fluorocyclohex-3-en-1-yl)-2-(1-methyl-1H-pyrazole-5-carboxamido)acetamido)phenyl)-2,4-dimethylpyridine 1-oxide or 3-(4-((S)-2-((S)-4-fluorocyclohex-3-en-1-yl)-2-(1-methyl-1H-pyrazole-5-carboxamido)acetamido)phenyl)-2,4-dimethylpyridine 1-oxide]	151	8	–	–	–
CCn1nccc1C(=O)NC(C(=O)Nc1ccc(-c2c(C(F)(F)F)cc[n+]([O-])c2C)cc1)C1CC2CC2C1 (single isomer, unassigned) [Example 64]	–	–	–	–	IC50 [1, 7]: 74 nM; IC50 [2, 8]: 25 nM
Cc1cc[n+]([O-])c(C)c1-c1ccc(NC(=O)[C@H](Cc2ccccc2Cl)NC(=O)c2ccc3n2CCN(C)C3)cc1 [Example 130, (S)-3-(4-(3-(2-chlorophenyl)-2-(2-methyl-1,2,3,4-tetrahydropyrrolo[1,2-a]pyrazine-6-carboxamido)propanamido)phenyl)-2,4-dimethylpyridine 1-oxide]	124	956	–	–	–

More lines, main results first:

IC50 [1, 3] [nM]	IC50 [2, 4] [nM]	IC50 [1, 5] [nM]	IC50 [2, 6] [nM]	SMILES	also measured
72.8	7	–	–	CC(=O)N1CCn2c(ccc2C(=O)N[C@H](C(=O)Nc2ccc(-c3c(Cl)cc[n+]([O-])c3C)c(F)c2)C2CCCCCC2)C1 [Example 134, 3-(4-((S)-2-(2-acetyl-1,2,3,4-tetrahydropyrrolo[1,2-a]pyrazine-6-carboxamido)-2-cycloheptylacetamido)-2-fluorophenyl)-4-chloro-2-methylpyridine 1-oxide]	–
–	–	8.96	30	Cc1cc[n+]([O-])c(C)c1-c1ccc(NC(=O)C(NC(=O)c2ccc3n2CCNC3)C2CCC(C(F)(F)F)CC2)cc1 [Example 178, 2,4-dimethyl-3-(4-((S)-2-(1,2,3,4-tetrahydropyrrolo[1,2-a]pyrazine-6-carboxamido)-2-((1r,4S)-4-(trifluoromethyl)cyclohexyl)acetamido)phenyl)pyridine 1-oxide]	–
–	–	186	44	Cc1cc[n+]([O-])c(C)c1-c1ccc(NC(=O)[C@@H](NC(=O)c2conc2C)C2CCC(F)(F)CC2)cc1 [Example 162, (S)-3-(4-(2-(4,4-difluorocyclohexyl)-2-(3-methylisoxazole-4-carboxamido)acetamido)phenyl)-2,4-dimethylpyridine 1-oxide]	–
–	–	130	20.5	Cc1cc[n+]([O-])c(C)c1-c1ccc(NC(=O)C(NC(=O)c2ccnn2C(C)C)C2CCCC(F)(F)C2)cc1 (centres unmarked) [Example 161, 3-(4-(2-(3,3-difluorocyclohexyl)-2-(1-isopropyl-1H-pyrazole-5-carboxamido)acetamido)phenyl)-2,4-dimethylpyridine 1-oxide]	–
–	–	61.2	44.5	Cc1c(-c2ccc(NC(=O)C(NC(=O)c3ccnn3C)C3CCCC(F)C3)cc2)c(Cl)cc[n+]1[O-] (centres unmarked) [Example 182, 4-chloro-3-(4-(2-(3-fluorocyclohexyl)-2-(1-methyl-1H-pyrazole-5-carboxamido)acetamido)phenyl)-2-methylpyridine 1-oxide]	–
–	–	118	15.5	Cc1cc[n+]([O-])c(C)c1-c1ccc(NC(=O)[C@@H](NC(=O)c2ccn3c2CNCC3)C2CCCCCC2)cc1 [Example 189, (S)-3-(4-(2-cycloheptyl-2-(1,2,3,4-tetrahydropyrrolo[1,2-a]pyrazine-8-carboxamido)acetamido)phenyl)-2,4-dimethylpyridine 1-oxide]	–
–	–	–	193	Cc1cc[n+]([O-])c(C)c1-c1ccc(NC(=O)C(NC(=O)c2ccnn2C)C2CCCC(F)(F)C2)cc1 (centres unmarked) [Example 147, 3-(4-(2-(3,3-difluorocyclohexyl)-2-(1-methyl-1H-pyrazole-5-carboxamido)acetamido)phenyl)-2,4-dimethylpyridine 1-oxide]	IC50 [1, 9]: 513 nM
–	–	596	531	Cc1nocc1C(=O)N[C@H](C(=O)Nc1ccc(-c2cc(Cl)c[n+]([O-])c2C)c(F)c1)C1CCC(F)(F)CC1 [Example 172, (S)-5-chloro-3-(4-(2-(4,4-difluorocyclohexyl)-2-(3-methylisoxazole-4-carboxamido)acetamido)-2-fluorophenyl)-2-methylpyridine 1-oxide]	–
–	–	118	59	Cc1cc[n+]([O-])c(C)c1-c1ccc(NC(=O)[C@@H](NC(=O)c2ccc3n2CCN(C)C3)C2CCCCCC2)nc1 [Example 149, (S)-6′-(2-cycloheptyl-2-(2-methyl-1,2,3,4-tetrahydropyrrolo[1,2-a]pyrazine-6-carboxamido)acetamido)-2,4-dimethyl-[3,3′-bipyridine] 1-oxide]	–
